In ChEMBL document CHEMBL1255486, “Effect of vicriviroc on the QT/corrected QT interval and central nervous system in healthy subjects” (Antimicrob Agents Chemother, 2010):

Experiments:
[1] = Tmax in healthy human at 250 mg/kg, po once daily for 7 days; assay type: ADME, organism-based; set-up: dose 250 mg/kg, route oral; settings: in vivo
Homo sapiens [2] = assay: Toxicity in healthy human assessed as fatigue at 300 […], po administered as single dose; assay type: organism-based; set-up: route oral; settings: in vivo
[3] = AUC (0 to 24 hrs) in healthy human at 250 mg/kg, po once daily for 7 days; assay type: ADME, organism-based; set-up: time < 24 hr, dose 250 mg/kg, route oral; settings: plasma
[4] = Cmax in healthy human at 30 mg/kg, po after 10 days; assay type: ADME, organism-based; set-up: dose 30 mg/kg, route oral; settings: in vivo
Homo sapiens [5] = assay: Toxicity in healthy human assessed as back pain at 250 mg/kg, po once daily for 7 days; assay type: organism-based; set-up: dose 250 mg/kg, route oral; settings: in vivo, 168 h
Homo sapiens [6] = assay: Toxicity in healthy human assessed as EEG abnormality at 250 mg/kg, po once daily for 7 days; assay type: organism-based; set-up: dose 250 mg/kg, route oral; settings: in vivo, 168 h
[7] = Tmax in healthy human at 200 mg/kg, po administered as single dose after 1 day; assay type: ADME, organism-based; set-up: dose 200 mg/kg, route oral; settings: in vivo
[8] = AUC (0 to infinity) in healthy human at 200 mg/kg, po administered as single dose after 1 day; assay type: ADME, organism-based; set-up: time infinity, dose 200 mg/kg, route oral; settings: plasma
Homo sapiens [9] = assay: Toxicity in healthy human assessed as nausea at 250 […], po once daily for 7 days; assay type: organism-based; set-up: route oral; settings: in vivo, 168 h
Homo sapiens [10] = assay: Toxicity in healthy human assessed as puncture site pain at 300 […], po administered as single dose; assay type: organism-based; set-up: route oral; settings: in vivo
Homo sapiens [11] = assay: Toxicity in healthy human assessed as nausea at 200 […], po once daily for 7 days; assay type: organism-based; set-up: route oral; settings: in vivo, 168 h
[12] = AUC (0 to infinity) in healthy human at 300 mg/kg, po administered as single dose after 1 day; assay type: ADME, organism-based; set-up: time infinity, dose 300 mg/kg, route oral; settings: plasma
[13] = Cmax in healthy human at 250 mg/kg, po once daily for 7 days; assay type: ADME, organism-based; set-up: dose 250 mg/kg, route oral; settings: in vivo
Homo sapiens [14] = assay: Toxicity in healthy human assessed as EEG abnormality at 250 mg/kg, po administered as single dose; assay type: organism-based; set-up: dose 250 mg/kg, route oral; settings: in vivo
[15] = Tmax in healthy human at 150 […], po after 10 days; assay type: ADME, organism-based; set-up: dose 150 mg/kg, route oral; settings: in vivo
Homo sapiens [16] = assay: Toxicity in healthy human assessed as nausea at 300 […], po administered as single dose; assay type: organism-based; set-up: route oral; settings: in vivo
Homo sapiens [17] = assay: Toxicity in healthy human assessed as EEG abnormality at 150 […], po once daily for 7 days; assay type: organism-based; set-up: dose 150 mg/kg, route oral; settings: in vivo, 168 h
Homo sapiens [18] = assay: Toxicity in healthy human assessed as pollakiuria at 200 […], po once daily for 7 days; assay type: organism-based; set-up: route oral; settings: in vivo, 168 h
Homo sapiens [19] = assay: Toxicity in healthy human assessed as increase in blood […] at 250 […], po once daily for 7 days; assay type: organism-based; set-up: route oral; settings: in vivo, 168 h
Homo sapiens [20] = assay: Toxicity in healthy human assessed as headache at 150 […], po once daily for 7 days; assay type: organism-based; set-up: route oral; settings: in vivo, 168 h
[21] = Cmax in healthy human at 150 […], po once daily for 7 days measured after 1 day of last dose; assay type: ADME, organism-based; set-up: dose 150 mg/kg, route oral; settings: in vivo
[22] = Tmax in healthy human at 150 […], po once daily for 7 days; assay type: ADME, organism-based; set-up: dose 150 mg/kg, route oral; settings: in vivo
Homo sapiens [23] = assay: Toxicity in healthy human assessed as EEG abnormality at 300 mg/kg, po administered as single dose; assay type: organism-based; set-up: dose 300 mg/kg, route oral; settings: in vivo
Homo sapiens [24] = assay: Toxicity in healthy human assessed as fatigue at 250 […], po administered as single dose; assay type: organism-based; set-up: route oral; settings: in vivo
Homo sapiens [25] = assay: Toxicity in healthy human assessed as EEG abnormality at 200 mg/kg, po administered as single dose; assay type: organism-based; set-up: dose 200 mg/kg, route oral; settings: in vivo
Homo sapiens [26] = assay: Toxicity in healthy human assessed as fatigue at 250 […], po once daily for 7 days; assay type: organism-based; set-up: route oral; settings: in vivo, 168 h
Homo sapiens [27] = assay: Toxicity in healthy human assessed as headache at 250 […], po once daily for 7 days; assay type: organism-based; set-up: route oral; settings: in vivo, 168 h
Homo sapiens [28] = assay: Toxicity in healthy human assessed as nausea at 250 […], po administered as single dose; assay type: organism-based; set-up: route oral; settings: in vivo
[29] = AUC (0 to 24 hrs) in healthy human at 150 […], po once daily for 7 days measured after 1 day of last dose; assay type: ADME, organism-based; set-up: time < 24 hr, dose 150 mg/kg, route oral; settings: plasma
Homo sapiens [30] = assay: Toxicity in healthy human assessed as EEG abnormality at 200 mg/kg, po once daily for 7 days; assay type: organism-based; set-up: dose 200 mg/kg, route oral; settings: in vivo, 168 h
Homo sapiens [31] = assay: Toxicity in healthy human assessed as headache at 250 […], po administered as single dose; assay type: organism-based; set-up: route oral; settings: in vivo
[32] = Cmax in healthy human at 200 mg/kg, po once daily for 7 days; assay type: ADME, organism-based; set-up: dose 200 mg/kg, route oral; settings: in vivo
[33] = AUC (0 to 24 hrs) in healthy human at 200 mg/kg, po once daily for 7 days measured after 1 day of last dose; assay type: ADME, organism-based; set-up: time < 24 hr, dose 200 mg/kg, route oral; settings: plasma
[34] = AUC (0 to 24 hrs) in healthy human at 250 mg/kg, po once daily for 7 days measured after 1 day of last dose; assay type: ADME, organism-based; set-up: time < 24 hr, dose 250 mg/kg, route oral; settings: plasma
Homo sapiens [35] = assay: Toxicity in healthy human assessed as headache at 300 […], po administered as single dose; assay type: organism-based; set-up: route oral; settings: in vivo

## COC[C@@H](c1ccc(C(F)(F)F)cc1)N1CCN(C2(C)CCN(C(=O)c3c(C)ncnc3C)CC2)C[C@@H]1C [VICRIVIROC]
[1]
  Tmax: 2 h
Homo sapiens [2]
  Activity: 0%
[3]
  AUC at 24 h: 8750 ng·h/mL
[4]
  Cmax: 403 ng/mL
Homo sapiens [5]
  Activity: 20%
Homo sapiens [6]
  Activity: 38%
[7]
  Tmax: 2 h
[8]
  AUC(0-inf): 6050 ng·h/mL
Homo sapiens [9]
  Activity: 13%
Homo sapiens [10]
  Activity: 17%
Homo sapiens [11]
  Activity: 13%
[12]
  AUC(0-inf): 10100 ng·h/mL
[13]
  Cmax: 1040 ng/mL
Homo sapiens [14]
  Activity: 0%
[15]
  Tmax: 1.5 h
Homo sapiens [16]
  Activity: 13%
Homo sapiens [17]
  Activity: 0%
Homo sapiens [18]
  Activity: 13%
Homo sapiens [19]
  Activity: 10%
Homo sapiens [20]
  Activity: 50%
[21]
  Cmax: 474 ng/mL
[22]
  Tmax: 1.5 h
Homo sapiens [23]
  Activity: 13%
Homo sapiens [24]
  Activity: 13%
Homo sapiens [25]
  Activity: 0%
Homo sapiens [26]
  Activity: 0%
Homo sapiens [27]
  Activity: 25%
Homo sapiens [28]
  Activity: 0%
[29]
  AUC at 24 h: 3260 ng·h/mL
Homo sapiens [30]
  Activity: 0%
Homo sapiens [31]
  Activity: 38%
[32]
  Cmax: 949 ng/mL
[33]
  AUC at 24 h: 5390 ng·h/mL
[34]
  AUC at 24 h: 5050 ng·h/mL
Homo sapiens [35]
  Activity: 13%
